Measurements reported in ChEMBL document CHEMBL1122254, “Sulfonyliminoimidazolidines. A new class of oral hypoglycemic agents. 1. 1-[[p-[2-(acylamino)ethyl]phenyl]sulfonyl]-2-iminoimidazolidines” (1983).

Experiments:
Format in all cases: functional
Rattus norvegicus [1] = experiment: Hypoglycemic activity by lowering blood glucose in normal rats by 20% after oral administration.
Rattus norvegicus [2] = experiment: Hypoglycemic activity by lowering blood glucose in streptozotocin-diabetic rats by 20% after oral administration.
Rattus norvegicus [3] = experiment: Hypoglycemic activity by lowering blood glucose in normal rats by 50% after oral administration.
Rattus norvegicus [4] = experiment: Compound evaluated for hypoglycemic activity by lowering blood glucose in normal rats by 50% after oral administration (highest dose tested)
Rattus norvegicus [5] = experiment: Compound evaluated for hypoglycemic activity by lowering blood glucose in streptozotocin-diabetic rats by 20% after oral administration; Highest dose tested; Inactive(less than 10% blood sugar decrease)
Rattus norvegicus [6] = experiment: Compound evaluated for hypoglycemic activity by lowering blood glucose in streptozotocin-diabetic rats by 20% after oral administration (highest dose tested)
Rattus norvegicus [7] = experiment: Compound evaluated for hypoglycemic activity by lowering blood glucose in normal rats by 20% after oral administration; inactive (less than 10% blood sugar decrease)
Rattus norvegicus [8] = experiment: Compound evaluated for hypoglycemic activity by lowering blood glucose in streptozotocin-diabetic rats by 20% after oral administration
Rattus norvegicus [9] = experiment: Compound evaluated for hypoglycemic activity by lowering blood glucose in streptozotocin-diabetic rats by 20% after oral administration; Inactive(less than 10% blood sugar decrease)
Rattus norvegicus [10] = experiment: Compound evaluated for hypoglycemic activity by lowering blood glucose in normal rats by 20% after oral administration
Rattus norvegicus [11] = experiment: Compound evaluated for hypoglycemic activity by lowering blood glucose in normal rats by 50% after oral administration
Rattus norvegicus [12] = experiment: Compound evaluated for hypoglycemic activity by lowering blood glucose in streptozotocin-diabetic rats by 20% after oral administration; Highest dose tested

| Compound | ED20 (Rattus norvegicus [1]) | ED20 (Rattus norvegicus [2]) | ED50 (Rattus norvegicus [3]) | further results |
| --- | --- | --- | --- | --- |
| C[S+]([O-])CCC(=O)NCCc1ccc(S(=O)(=O)N2CCN(C3CCCCC3)C2=N)cc1 (configuration not stated) | 0.056 mmol/kg | 0.86 mmol/kg | 200 µmol/kg | – |
| CSCCC(=O)NCCc1ccc(S(=O)(=O)N2CCN(C3CCCCC3)C2=N)cc1 | 0.053 mmol/kg | – | 200 µmol/kg | – |
| N=C1N(C2CCCCC2)CCN1S(=O)(=O)c1ccc(CCNC(=S)NC2CCCCC2)cc1 | 0.16 mmol/kg | – | – | ED50 (Rattus norvegicus [4]): > 820 µmol/kg |
| COCCC(=O)NCCc1ccc(S(=O)(=O)N2CCN(C3CCCCC3)C2=N)cc1 | 0.033 mmol/kg | – | 220 µmol/kg | – |
| CN(C)CC(=O)NCCc1ccc(S(=O)(=O)N2CCN(C3CCCCC3)C2=N)cc1 | 0.057 mmol/kg | – | 180 µmol/kg | – |
| CCCSCC(=O)NCCc1ccc(S(=O)(=O)N2CCN(C3CCCCC3)C2=N)cc1 | 0.1 mmol/kg | – | 550 µmol/kg | – |
| CCSCC(=O)NCCc1ccc(S(=O)(=O)N2CCN(C3CCCCC3)C2=N)cc1 | 0.055 mmol/kg | 0.57 mmol/kg | 200 µmol/kg | – |
| C=CCCC(=O)NCCc1ccc(S(=O)(=O)N2CCN(C3CCCCC3)C2=N)cc1 | 0.0069 mmol/kg | 0.36 mmol/kg | 15 µmol/kg | – |
| N=C1N(C2CCCCC2)CCN1S(=O)(=O)c1ccc(CCNC(N)=O)cc1 | 0.39 mmol/kg | – | – | ED20 (Rattus norvegicus [5]): > 0.76 mmol/kg |
| N=C1N(C2CCCCC2)CCN1S(=O)(=O)c1ccc(CCNC(=O)c2cccnc2)cc1 | 0.034 mmol/kg | – | 160 µmol/kg | ED20 (Rattus norvegicus [6]): > 0.22 mmol/kg |
| CCCCOC(=O)NCCc1ccc(S(=O)(=O)N2CCN(C3CCCCC3)C2=N)cc1 | 0.079 mmol/kg | 0.89 mmol/kg | 890 µmol/kg | – |
| N=C1N(C2CCCCC2)CCN1S(=O)(=O)c1ccc(CCNC(=O)CN)cc1 | 0.39 mmol/kg | 0.62 mmol/kg | – | – |
| CC(C(=O)NCCc1ccc(S(=O)(=O)N2CCN(C3CCCCC3)C2=N)cc1)N(C)C (configuration not stated) | 0.024 mmol/kg | – | 62 µmol/kg | – |
| Cc1cc(C(=O)NCCc2ccc(S(=O)(=O)N3CCN(C4CCCCC4)C3=N)cc2)no1 | 0.022 mmol/kg | 0.14 mmol/kg | 130 µmol/kg | – |
| CCCCCC/N=C(\S)NCCc1ccc(S(=O)(=O)N2CCN(C3CCCCC3)C2=N)cc1 | 0.3 mmol/kg | – | – | ED50 (Rattus norvegicus [4]): > 610 µmol/kg |
| N=C1N(C2CCCCC2)CCN1S(=O)(=O)c1ccc(CCNC(=O)c2ccc(Cl)c(Cl)c2)cc1 | 0.37 mmol/kg | – | – | ED50 (Rattus norvegicus [4]): > 760 µmol/kg |
| Cc1cnc(C(=O)NCCc2ccc(S(=O)(=O)N3CCN(C4CCCCC4)C3=N)cc2)cn1 | 0.01 mmol/kg | – | 100 µmol/kg | ED20 (Rattus norvegicus [6]): > 0.61 mmol/kg |
| Cc1ncsc1C(=O)NCCc1ccc(S(=O)(=O)N2CCN(C3CCCCC3)C2=N)cc1 | – | – | – | ED20 (Rattus norvegicus [7]): > 0.22 mmol/kg |
| Cc1ccccc1C(=O)NCCc1ccc(S(=O)(=O)N2CCN(C3CCCCC3)C2=N)cc1 | 0.022 mmol/kg | – | – | ED50 (Rattus norvegicus [4]): > 850 µmol/kg |
| COc1ccccc1C(=O)NCCc1ccc(S(=O)(=O)N2CCN(C3CCCCC3)C2=N)cc1 | 0.093 mmol/kg | – | – | ED50 (Rattus norvegicus [4]): > 830 µmol/kg |
| CCCOCC(=O)NCCc1ccc(S(=O)(=O)N2CCN(C3CCCCC3)C2=N)cc1 | 0.1 mmol/kg | – | 350 µmol/kg | – |
| COc1cccc(C(=O)NCCc2ccc(S(=O)(=O)N3CCN(C4CCCCC4)C3=N)cc2)c1 | 0.062 mmol/kg | – | 380 µmol/kg | ED20 (Rattus norvegicus [8]): 0.31 mmol/kg |
| CCCC(=O)NCCc1ccc(S(=O)(=O)N2CCN(C3CCCCC3)C2=N)cc1 | 0.024 mmol/kg | – | 83 µmol/kg | ED20 (Rattus norvegicus [8]): 0.52 mmol/kg |
| COc1ccc(Cl)cc1C(=O)NCCc1ccc(S(=O)(=O)N2CCN(C3CCCCC3)C2=N)cc1 | 0.12 mmol/kg | – | – | ED50 (Rattus norvegicus [4]): > 770 µmol/kg |
| N=C1N(C2CCCCC2)CCN1S(=O)(=O)c1ccc(CCNC(=O)CCN)cc1 | 0.065 mmol/kg | 0.76 mmol/kg | 370 µmol/kg | – |
| N=C1N(C2CCCCC2)CCN1S(=O)(=O)c1ccc(CCNC(=O)CCC2CCC2)cc1 | 0.052 mmol/kg | – | 200 µmol/kg | – |
| CCCCNC(=O)NCCc1ccc(S(=O)(=O)N2CCN(C3CCCCC3)C2=N)cc1 | 0.067 mmol/kg | – | 330 µmol/kg | – |

| Compound | ED20 (Rattus norvegicus [1]) | ED20 (Rattus norvegicus [2]) | ED50 (Rattus norvegicus [3]) | further results |
| --- | --- | --- | --- | --- |
| C/C=C/C(=O)NCCc1ccc(S(=O)(=O)N2CCN(C3CCCCC3)C2=N)cc1 | 0.0028 mmol/kg | 0.18 mmol/kg | 9.6 µmol/kg | – |
| N=C1N(C2CCCCC2)CCN1S(=O)(=O)c1ccc(CCNC(=O)C2CC=CCC2)cc1 (configuration not stated) | 0.0044 mmol/kg | 0.39 mmol/kg | 15 µmol/kg | – |
| CCCCC(=O)NCCc1ccc(S(=O)(=O)N2CCN(C3CCCCC3)C2=N)cc1 | 0.035 mmol/kg | – | 120 µmol/kg | – |
| N=C1N(C2CCCCC2)CCN1S(=O)(=O)c1ccc(CCNC(=O)c2cnccn2)cc1 | 0.12 mmol/kg | – | 480 µmol/kg | ED20 (Rattus norvegicus [6]): > 0.22 mmol/kg |
| N=C1N(C2CCCCC2)CCN1S(=O)(=O)c1ccc(CCNC(=O)C(N)c2ccccc2)cc1 (configuration not stated) | 0.029 mmol/kg | – | 76 µmol/kg | ED20 (Rattus norvegicus [9]): > 0.18 mmol/kg |
| CCS(=O)(=O)CC(=O)NCCc1ccc(S(=O)(=O)N2CCN(C3CCCCC3)C2=N)cc1 | 0.11 mmol/kg | – | 530 µmol/kg | ED20 (Rattus norvegicus [8]): 0.83 mmol/kg |
| N=C1N(C2CCCCC2)CCN1S(=O)(=O)c1ccc(CCNC(=O)/C=C/c2ccccc2)cc1 | 0.11 mmol/kg | – | – | ED50 (Rattus norvegicus [4]): > 630 µmol/kg |
| N=C1N(C2CCCCC2)CCN1S(=O)(=O)c1ccc(CCNC(=O)c2ccc[n+]([O-])c2)cc1 | – | – | – | ED20 (Rattus norvegicus [9]): > 0.64 mmol/kg; ED20 (Rattus norvegicus [10]): 0.042 mmol/kg |
| CCC/C=C/C(=O)NCCc1ccc(S(=O)(=O)N2CCN(C3CCCCC3)C2=N)cc1 | 0.009 mmol/kg | 0.81 mmol/kg | 22 µmol/kg | – |
| CCC(CC)C(=O)NCCc1ccc(S(=O)(=O)N2CCN(C3CCCCC3)C2=N)cc1 | 0.098 mmol/kg | – | – | ED50 (Rattus norvegicus [4]): > 890 µmol/kg |
| N=C1N(C2CCCCC2)CCN1S(=O)(=O)c1ccc(CCNC(=O)c2ccco2)cc1 | 0.013 mmol/kg | 0.22 mmol/kg | 160 µmol/kg | – |
| N=C1N(C2CCCCC2)CCN1S(=O)(=O)c1ccc(CCNC(=O)c2cccs2)cc1 | 0.022 mmol/kg | – | 170 µmol/kg | – |
| N=C1N(C2CCCCC2)CCN1S(=O)(=O)c1ccc(CCNC(=O)c2ccccc2)cc1 | – | – | – | ED20 (Rattus norvegicus [10]): 0.021 mmol/kg; ED50 (Rattus norvegicus [11]): 200 µmol/kg |
| C[S+]([O-])CC(=O)NCCc1ccc(S(=O)(=O)N2CCN(C3CCCCC3)C2=N)cc1 (configuration not stated) | 0.12 mmol/kg | – | – | ED20 (Rattus norvegicus [5]): > 0.66 mmol/kg |
| CC(N)C(=O)NCCc1ccc(S(=O)(=O)N2CCN(C3CCCCC3)C2=N)cc1 (configuration not stated) | 0.059 mmol/kg | 0.46 mmol/kg | 160 µmol/kg | – |
| CC[S+]([O-])CCC(=O)NCCc1ccc(S(=O)(=O)N2CCN(C3CCCCC3)C2=N)cc1 (configuration not stated) | 0.031 mmol/kg | – | 200 µmol/kg | ED20 (Rattus norvegicus [12]): > 0.62 mmol/kg |
| CN(C)C(C(=O)NCCc1ccc(S(=O)(=O)N2CCN(C3CCCCC3)C2=N)cc1)c1ccccc1 (configuration not stated) | 0.037 mmol/kg | – | 170 µmol/kg | ED20 (Rattus norvegicus [12]): > 0.55 mmol/kg |
| C=C(C(=O)NCCc1ccc(S(=O)(=O)N2CCN(C3CCCCC3)C2=N)cc1)c1ccccc1 | 0.014 mmol/kg | 0.96 mmol/kg | 48 µmol/kg | – |
| N=C1N(C2CCCCC2)CCN1S(=O)(=O)c1ccc(CCNC(=O)c2cncnc2)cc1 | 0.2 mmol/kg | – | – | ED50 (Rattus norvegicus [4]): > 590 µmol/kg; ED20 (Rattus norvegicus [6]): > 0.59 mmol/kg |
| N=C1N(C2CCCCC2)CCN1S(=O)(=O)c1ccc(CCNC(=O)CCNc2ccccc2)cc1 | 0.24 mmol/kg | 0.8 mmol/kg | – | – |
| CC(Nc1ccccc1)C(=O)NCCc1ccc(S(=O)(=O)N2CCN(C3CCCCC3)C2=N)cc1 (configuration not stated) | 0.06 mmol/kg | 0.4 mmol/kg | 200 µmol/kg | – |
| N=C1N(C2CCCCC2)CCN1S(=O)(=O)c1ccc(CCNC(=O)CNc2ccccc2)cc1 | 0.064 mmol/kg | 0.4 mmol/kg | 320 µmol/kg | – |
| CCC[S+]([O-])CC(=O)NCCc1ccc(S(=O)(=O)N2CCN(C3CCCCC3)C2=N)cc1 (configuration not stated) | 0.071 mmol/kg | – | – | ED20 (Rattus norvegicus [5]): > 0.62 mmol/kg |
| CC[S+]([O-])CC(=O)NCCc1ccc(S(=O)(=O)N2CCN(C3CCCCC3)C2=N)cc1 (configuration not stated) | 0.074 mmol/kg | 0.85 mmol/kg | 240 µmol/kg | – |
| COc1ccc(Cl)cc1C(=O)NCCc1ccc(S(=O)(=O)NC(=O)NC2CCCCC2)cc1 [GLYBURIDE] | 0.004 mmol/kg | – | 20 µmol/kg | ED20 (Rattus norvegicus [9]): > 0.5 mmol/kg |
| CCCCNC(=O)NS(=O)(=O)c1ccc(C)cc1 [TOLBUTAMIDE] | – | – | – | ED20 (Rattus norvegicus [9]): > 1 mmol/kg; ED20 (Rattus norvegicus [10]): 0.056 mmol/kg; ED50 (Rattus norvegicus [11]): 300 µmol/kg |
